The source of these data is PubChem BioAssay (NCI).

Among the test systems are DMS 114 small cell lung; HOP-18 NSCLC; P388 leukemia; M19-MEL melanoma; DMS 273 small cell lung; SNB-78 CNS; XF 498 CNS; KM20L2 colon; LXFL 529 NSCLC; RXF-631 renal.
Holding throughout (test): NCI tumour cell line growth inhibition, 48 h

Values joined by “and” are separate entries in the source; they are usually repeats but may differ in a detail not shown here. Equal values may be shown once.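 Five compound concentrations were applied to cells in 96-well plates for 48 hours; endpoints were derived by simple linear interpolation of the resulting dose-response curve. Here, GI50 denotes the concentration required for 50% inhibition of growth. TGI: total growth inhibition.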

On to `CN(c1ccccc1)c1c(-c2ccccc2)c(=O)oc2c1ccc1occc12`, for which the TGI in the assay with DMS 114 small cell lung, in the assay on HOP-18 NSCLC, in the assay on P388 leukemia, in the assay on M19-MEL melanoma, with DMS 273 small cell lung and with SNB-78 CNS was more than 100 µM throughout.
On to `COc1cccc2c1C(=O)c1c(O)c3c(c(O)c1C2=O)C[C@](O)(C(=O)CO)CC3OC1CC(N)C(OC2CCCCO2)C(C)O1` (stereo not given in full), for which the TGI was 0.684 µM in the assay on XF 498 CNS; 3 µM in the assay with HOP-18 NSCLC; 4.84 µM in the assay on KM20L2 colon; 0.233 µM in the assay on P388 leukemia; 1.22 µM with DMS 273 small cell lung; 6.02 µM in the assay on SNB-78 CNS.
`O=C(c1ccccc1)c1ccc2c(c1)N=C(c1ccc(Cl)c(Cl)c1)CC(c1ccc3ccccc3c1)N2` (stereo not given): the TGI with LXFL 529 NSCLC, in the assay with XF 498 CNS, in the assay with DMS 114 small cell lung, in the assay with KM20L2 colon, in the assay with RXF-631 renal and in the assay with M19-MEL melanoma was more than 100 µM each time. Besides, the TGI in the assay with DMS 273 small cell lung and in the assay on SNB-78 CNS was more than 100 µM throughout.
In the case of `O=C1/C(=C/c2ccc(Cl)c(Cl)c2)CN(C(=O)CCN2CCOCC2)C/C1=C\c1ccc(Cl)c(Cl)c1`, the GI50 in the assay on LXFL 529 NSCLC was 0.499 µM; in the assay with DMS 114 small cell lung, 0.346 µM; in the assay with HOP-18 NSCLC it was 2.11 µM; with KM20L2 colon, 1.82 µM; with RXF-631 renal, 1.99 µM; in the assay with M19-MEL melanoma, 1.09 µM. Moreover, the GI50 in the assay on DMS 273 small cell lung was 0.23 µM; in the assay on SNB-78 CNS, 2.22 µM. For the same molecule, the TGI in the assay on LXFL 529 NSCLC was 2.99 µM and 1.63 µM; in the assay on DMS 114 small cell lung, 2.34 µM and 1.33 µM; in the assay with HOP-18 NSCLC, 5.96 µM and 5.49 µM; with KM20L2 colon it was 2.79 µM and 4.01 µM; in the assay on RXF-631 renal it was 8.25 µM and 5.87 µM; in the assay on M19-MEL melanoma it was 3 µM and 2.4 µM. The TGI with DMS 273 small cell lung is 2.37 µM and 0.608 µM; in the assay on SNB-78 CNS, 9.93 µM and 6.3 µM.
With `O=c1c2cc(Cl)ccc2n2nnc3ccc(NCCNCCO)c1c32`, the TGI with LXFL 529 NSCLC was 3.51 µM; with DMS 114 small cell lung, 3.59 µM; with KM20L2 colon, 2.72 µM; with RXF-631 renal it was 3.05 µM; with M19-MEL melanoma, 3.28 µM; in the assay with DMS 273 small cell lung, 2.45 µM. For the same molecule, the TGI in the assay on SNB-78 CNS stood at 9.39 µM.
On to `C#Cc1ccccc1C(=O)OC`, for which the TGI with XF 498 CNS, with DMS 114 small cell lung, with HOP-18 NSCLC, with KM20L2 colon and in the assay with DMS 273 small cell lung was more than 100 µM each time.
Regarding `CC1Oc2c(c(O)cc3oc(=O)cc(-c4ccccc4)c23)C(=O)C1C` (stereo not given), the TGI in the assay with LXFL 529 NSCLC, in the assay with XF 498 CNS, with HOP-18 NSCLC, in the assay on KM20L2 colon, in the assay on RXF-631 renal and in the assay with DMS 273 small cell lung was more than 100 µM each time. The TGI with SNB-78 CNS was more than 100 µM.
Regarding `O.O=[Se](=O)(O)O.[NH-]C1CCCCC1[NH-].[Pt+2]` (stereo not given), the values for the GI50 in the assay with HOP-18 NSCLC, with P388 leukemia and in the assay on SNB-78 CNS were more than 100 µM, 0.433 µM and 48.4 µM, respectively. The TGI was more than 100 µM in the assay on HOP-18 NSCLC; more than 100 µM in the assay with KM20L2 colon; 30.9 µM in the assay on P388 leukemia; more than 75.6 µM in the assay on M19-MEL melanoma; more than 100 µM in the assay on SNB-78 CNS.
For the molecule `C=C1C(=O)OC2C1CC1OC2C(C)CCC/C(C)=C\CCC1(C)O` (stereo not given), the TGI worked out at 38.9 µM in the assay on XF 498 CNS; 33 µM in the assay on DMS 114 small cell lung; 19.7 µM with HOP-18 NSCLC; 81.9 µM in the assay on KM20L2 colon; 42.4 µM in the assay with P388 leukemia; 29 µM in the assay with M19-MEL melanoma. In addition, the TGI with DMS 273 small cell lung came out at 53.1 µM; in the assay on SNB-78 CNS, 42.9 µM.
For the molecule `COc1ccc(/C(Cl)=C(\C=O)c2ccc(Cl)cc2)cc1`, the TGI with LXFL 529 NSCLC is 51 µM; in the assay on DMS 114 small cell lung it was 32.5 µM; in the assay on HOP-18 NSCLC, more than 100 µM; in the assay with KM20L2 colon it was 33.2 µM; with RXF-631 renal, 47.6 µM; in the assay with M19-MEL melanoma it was 75.4 µM. In addition, the TGI with DMS 273 small cell lung and with SNB-78 CNS was more than 100 µM in each case.
Regarding `CCC[CH2][Ge]([CH2]CCC)([CH2]CCC)[O]C(=O)CCl`, the GI50 in the assay on LXFL 529 NSCLC was 1.98 µM; in the assay on XF 498 CNS, 8.63 µM; with DMS 114 small cell lung, 0.316 µM; in the assay with HOP-18 NSCLC it was 11.7 µM; in the assay with KM20L2 colon it was 2.95 µM; in the assay with M19-MEL melanoma it was 11.1 µM. Besides, the TGI came out at 17.1 µM in the assay with LXFL 529 NSCLC; 21.1 µM with XF 498 CNS; 10.2 µM in the assay on DMS 114 small cell lung; 24 µM with HOP-18 NSCLC; 23.5 µM in the assay on KM20L2 colon; 23.2 µM in the assay with M19-MEL melanoma.
As to `Nc1ncnc2c(C3OC(CO)C(O)C3O)c[nH]c12` (stereo not given), the TGI in the assay on LXFL 529 NSCLC was 0.189 µM and 0.153 µM; with XF 498 CNS, 0.168 µM; in the assay with DMS 114 small cell lung it was 0.0304 µM and 0.0184 µM; in the assay on HOP-18 NSCLC, 0.497 µM and 1.34 µM; in the assay on KM20L2 colon, 1.1 µM; in the assay on RXF-631 renal, 0.56 µM and 0.533 µM. Also, the TGI was 0.196 µM and 0.423 µM in the assay on M19-MEL melanoma; 0.116 µM with DMS 273 small cell lung; 1.12 µM in the assay on SNB-78 CNS.
